# According to patent US20030049709A1, “Programmed cell death and Ich-3” (priority 1996, published 2003):
# Legend:
# [1] = system: apoptosis in an cell-free system; conditions: read-out: concentration to cause 50% inhibition of apoptosis; cited from earlier work
# [2] = system: poly(ADP-ribose) polymerase (PARP) cleavage; conditions: cited from earlier work
# [3] = system: embryonic fibroblasts; assay: Granzyme/perforin induced apoptosis of embryonic fibroblasts (Hoechst dye); format: cell-based, mice; conditions: Ich-3−/− EF cells; up to 0.8 μg/ml granzyme with 50 ng/ml perforin
# Procedure: FIGS. 9A-9B. Ich-3 deficient EF cells are resistant to Granzyme B and Granzyme 3 induced apoptosis. Embryonic fibroblasts from Ich-3−/− and wild type controls were treated with varying concentrations of granzyme B (FIG. 9A) or granzyme 3 (FIG. 9B) in the presence of a constant amount of perforin (50 ng/ml) for a period of 2 and 8 hrs, respectively. The percentage of apoptosis cells was determined from cell counts after staining with Hoechst dye (Chen et al., 1995). Control wells contained cells alone incubated with or without perforin. Data points represent the percentage of apoptotic cells for a particular dilution of granzyme minus the percentage of apoptotic cells observed in medium alone.
# Granule serine protease (GraB) derived from cytotoxic T lymphocytes (CTL) can induce apoptosis in the presence of the pore forming protein perforin (Shi et al., J. Exp. Med. 176:1521-1529 (1992)). To determine the role of ICH-3 in apoptosis induced by GraB, the ability of Ich-3−/− embryonic fibroblasts (EF) to undergo apoptosis following treatment with GraB or Granzyme 3 (Gra3) and perforin was examined. Embryonic fibroblasts from Ich-3−/− mice and wild type littermate controls were treated with varying concentrations of GraB or Gra3 in the presence of a constant amount of perforin (50 ng/ml) for a period of 2 and 8 hrs, respectively.
# [4] = biological target: T1, His-tagged ICH-3 protein (Mus musculus, UniProt P70343); assay: In vitro cleavage assay of ICH-3 by GraB (Western blot); format: biochemical; conditions: 20 ng GraB, 30° C., 1 hour, 10 mM DTT
# T1 construct: An EcoRI fragment from the cDNA clone BSNO12 encoding the full length Ich-3 was subdloned into EcoRI site of pTrcHis (Invitrogen); polyhistidine (six histidines) (N); made in house; host or cells: E. coli
# T1 sequence (P70343 81-373): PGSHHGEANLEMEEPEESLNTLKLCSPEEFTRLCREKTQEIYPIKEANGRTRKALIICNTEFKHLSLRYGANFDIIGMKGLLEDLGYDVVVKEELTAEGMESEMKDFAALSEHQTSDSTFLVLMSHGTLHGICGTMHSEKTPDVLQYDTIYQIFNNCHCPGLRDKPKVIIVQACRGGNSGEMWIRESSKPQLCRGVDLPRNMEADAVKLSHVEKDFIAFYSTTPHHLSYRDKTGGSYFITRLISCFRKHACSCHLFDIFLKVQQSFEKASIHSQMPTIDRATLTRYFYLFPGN
# Procedure: FIG. 5. Cleavage of ICH-3 protein by granzyme B. 10 μg His-tagged ICH-3 protein purified from E. coli was incubated with 20 ng of GraB in the presence of 10 mM DTT at 30° C. for 1 hour. The result was detected by Western blotting with a peptide antibody against p20 portion of ICH-3.
# For in vitro cleavage of ICH-3 by GraB, […] purified His-tagged ICH-3 protein was incubated with 20 ng of GraB in the presence of 50 mM Tris-HCl, pH 7.5, 0.5 mM EDTA, 0.5 mM Sucrose and 10 mM DTT in a total volume of 10 μl. The mixture was incubated at 30° C. for 1 hour and the cleavage was detected by Western blotting with a peptide antibody against the p20 portion of ICH-3.
# To examine whether GraB can cleave ICH-3, a His-tagged ICH-3 protein was expressed in E. coli. His-tagged ICH-3 protein purified from bacteria was mixed with or without active GraB and incubated at 30° C. for 1 hour. The cleavage products were identified by Western blot with a peptide antibodies against the p20 or a monoclonal antibody against p10 portion of ICH-3. As show in FIG. 5, the fulll length ICH-3 band disappeared after incubation with GraB: a new 20 kDa band appeared which is detected by an anti-ICH-3 p20 antibody and a new 10 kDa band which is recognized by a monoclonal antibody against p10 of ICH-3. […] Fragments around 30 kDa are the predicted sizes of the cleavages at Asp 59 and Asp 80. […]
# [5] = biological target: ICH-3 protein (mouse) (mouse) (UniProt P70343)
# [6] = system: thymocytes; assay: Thymocyte apoptosis under other apoptotic stimuli; format: cell-based, mice; conditions: Ich-3 mutant thymocytes; dexamethasone 1 μM; 10 nM PMA and 500 nM Ca2+ ionophore
# Procedure: Thymocytes are sensitive to several apoptotic stimuli such as irradiation and dexamethasone (Cohen, J. J., et al., Annu. Rev. Immunol. 10:267-293 (1992)). To determine if apoptosis of thymocytes is affected by a mutation in the Ich-3 locus, Ich-3−/− thymocytes were examined for defects in apoptosis using a variety of apoptotic induction signals. Thymocytes isolated from 6-7 week old, wild-type and Ich-3 mutant mice were treated with 500 rads of y-irtadiation, or dexamethasone (1(IM, or 10 nM phorbol myristate acetate (PMA) and 500 nM Ca^2+ ionophore, and cell viability was examined 10 hr or 24 hr after treatment by using FCAS analysis after staining with propidine iodine. (Schwartz, et al., “Cell Death—Methods in Cell Biology.” vol. 46, Academic Press).
molecule,measurement,setting,value
Ac-DEVD-CHO,IC50,[1],1 µM
same,dose inhibiting PARP cleavage,[2],1 nM
GraB: granule serine protease required for the cytotoxic activity of lymphocytes,apoptosis of EF cells,[3],only baseline levels of apoptosis
same,cleavage of ICH-3,[4],can cleave ICH-3 into p20 and p10
granzyme B (enzyme),percentage of apoptotic embryonic fibroblasts (Hoechst dye) after GraB and perforin,[5],40%
phorbol myristate acetate [PMA and Ca^2+ ionophore],resistance of thymocytes to induced apoptosis,[6],not resistant
"Gra3: Granzyme 3 (protein, UniProt P49863 27-264, looked up) Granzyme K: IIGGKEVSPHSRPFMASIQYGGHHVCGGVLIDPQWVLTAAHCQYRFTKGQSPTVVLGAHSLSKNEASKQTLEIKKFIPFSRVTSDPQSNDIMLVKLQTAAKLNKHVKMLHIRSKTSLRSGTKCKVTGWGATDPDSLRPSDTLREVTVTVLSRKLCNSQSYYNGDPFITKDMVCAGDAKGQKDSCKGDSGGPLICKGVFHAIVSGGHECGVATKPGIYTLLTKKYQTWIKSNLVPPHTN",apoptosis of EF cells,[3],only baseline levels of apoptosis
